Reference: ChEMBL document CHEMBL1201862, “PubChem BioAssay data set” (2004)
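Compound exposure: 48 hours, 5 concentrations, 96-well plates. Here, GI50 denotes the concentration required for 50% inhibition of growth.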 The source made the active and inactive calls. No stated cut-off is given here; in the data, active = GI50 up to about 1.1 µM and inactive = higher.

How the values were obtained:
Test in all cases: NCI anticancer screen, dose series, 48 h
A498 = tested on: A498
CAKI-1 = tested on: CAKI-1
HCT-15 = tested on: HCT-15
HL-60 = tested on: HL-60
HOP-62 = tested on: HOP-62
HT-29 = tested on: HT-29
IGROV-1 = tested on: IGROV-1
LOX IMVI = tested on: LOX IMVI
NCI-H23 = tested on: NCI-H23
NCI-H460 = tested on: NCI-H460
NCI-H522 = tested on: NCI-H522
OVCAR-5 = tested on: OVCAR-5
RPMI-8226 = tested on: RPMI-8226
SF-295 = tested on: SF-295
SF-539 = tested on: SF-539
SN12C = tested on: SN12C
SR = tested on: SR
UACC-257 = tested on: UACC-257
UACC-62 = tested on: UACC-62
Malme-3M = tested on: Malme-3M

Row | SMILES | GI50 (A498) | GI50 (CAKI-1) | GI50 (HCT-15) [µM] | GI50 (HL-60) | GI50 (HOP-62) | GI50 (HT-29) | GI50 (IGROV-1) | GI50 (LOX IMVI) | GI50 (NCI-H23) | GI50 (NCI-H460) | GI50 (NCI-H522) | GI50 (OVCAR-5) | GI50 (RPMI-8226) | GI50 (SF-295) | GI50 (SF-539) | GI50 (SN12C) | GI50 (SR) | GI50 (UACC-257) | GI50 (UACC-62) | GI50 (Malme-3M)
1 | CC(C)=CC(=O)N1CCN(C(=O)C=C(C)C)CC1 | > 100 µM (inactive) | > 100 µM (inactive) | > 100 | > 100 µM (inactive) | > 100 µM (inactive) | > 100 µM (inactive) | > 100 µM (inactive) | > 100 µM (inactive) | > 100 µM (inactive) | > 100 µM (inactive) | > 100 µM (inactive) | > 100 µM (inactive) | > 100 µM (inactive) | > 100 µM (inactive) | > 100 µM (inactive) | > 100 µM (inactive) | > 100 µM (inactive) | > 100 µM (inactive) | > 100 µM (inactive) | 
2 | O=C1C2C3CC(C4C5C=CC(C5)C34)C2C2C3CC(C12)C1C2C=CC(C2)C31 (stereo not given) | > 100 µM (inactive) | > 100 µM (inactive) | > 100 | 75.2 µM (inactive) | > 100 µM (inactive) | > 100 µM (inactive) | > 100 µM (inactive) | 28.8 µM (inactive) | > 100 µM (inactive) | 26.8 µM (inactive) | > 100 µM (inactive) | > 100 µM (inactive) |  | > 100 µM (inactive) | > 100 µM (inactive) | > 100 µM (inactive) | > 100 µM (inactive) | > 100 µM (inactive) | > 100 µM (inactive) | > 100 µM (inactive)
3 | CC(=NNC(=S)Nc1ccccc1C)c1cccc(C(C)=NNC(=S)Nc2ccccc2C)n1 | > 100 µM (inactive) | 42.9 µM (inactive) | 8.63 | 19.7 µM (inactive) | 6.56 µM (inactive) | 39 µM (inactive) | 26.3 µM (inactive) | 6.9 µM (inactive) | 65.3 µM (inactive) | 15.3 µM (inactive) |  | > 100 µM (inactive) | > 100 µM (inactive) | 8.93 µM (inactive) | 6.68 µM (inactive) | 44.6 µM (inactive) | 0.262 µM (active) | 27.6 µM (inactive) | 45.1 µM (inactive) | 15.5 µM (inactive)
4 | O=C1c2ccccc2-n2nnnc2C2CSCN12 (stereo not given) | > 100 µM (inactive) | > 100 µM (inactive) | > 100 |  | > 100 µM (inactive) | > 100 µM (inactive) | > 100 µM (inactive) | > 100 µM (inactive) |  | > 100 µM (inactive) | > 100 µM (inactive) | > 100 µM (inactive) | > 100 µM (inactive) | > 100 µM (inactive) |  | > 100 µM (inactive) | > 100 µM (inactive) | > 100 µM (inactive) | > 100 µM (inactive) | > 100 µM (inactive)
5 | COc1ccc2nc3c([N+](=O)[O-])ccc(NCCN(C)C)c3c(N)c2c1 | 2.07 µM (inactive) | 1.8 µM (inactive) | 1.16 | 0.194 µM (active) | 1.66 µM (inactive) | 0.508 µM (active) | 1.15 µM (inactive) | 0.537 µM (active) | 1.69 µM (inactive) | 1.47 µM (inactive) |  | 1.52 µM (inactive) | 0.0703 µM (active) | 1.75 µM (inactive) | 1.56 µM (inactive) | 1.33 µM (inactive) | 0.679 µM (active) | 1.91 µM (inactive) | 1.82 µM (inactive) | 1.34 µM (inactive)
6 | O=S(=O)(O)c1cc(/N=N/c2c(O)ccc3ccccc23)cc2c(S(=O)(=O)O)cccc12 | > 100 µM (inactive) | > 100 µM (inactive) | > 100 | > 100 µM (inactive) | > 100 µM (inactive) | > 100 µM (inactive) | > 100 µM (inactive) |  |  | > 100 µM (inactive) | > 100 µM (inactive) | > 100 µM (inactive) | > 100 µM (inactive) | > 100 µM (inactive) | > 100 µM (inactive) |  | > 100 µM (inactive) | > 100 µM (inactive) | > 100 µM (inactive) | 33.7 µM (inactive)
7 | O=C1N=CN=C2C=CC(Cl)=C(I)C12 (stereo not given) | 85.3 µM (inactive) | 24.3 µM (inactive) |  | 93.5 µM (inactive) | 67.5 µM (inactive) | > 100 µM (inactive) | 33.3 µM (inactive) | 56.1 µM (inactive) | 46.2 µM (inactive) | 75.5 µM (inactive) |  | > 100 µM (inactive) | 56.2 µM (inactive) | > 100 µM (inactive) |  | > 100 µM (inactive) | 91.8 µM (inactive) | > 100 µM (inactive) | 45.3 µM (inactive) | > 100 µM (inactive)
8 | Cc1ccc(Oc2ccc(C(=O)c3cccc(C(=O)c4ccc(Oc5ccc(C)cc5)cc4)n3)cc2)cc1 | > 100 µM (inactive) | > 100 µM (inactive) | > 100 | > 100 µM (inactive) | > 100 µM (inactive) | > 100 µM (inactive) | > 100 µM (inactive) | > 100 µM (inactive) | > 100 µM (inactive) | > 100 µM (inactive) | > 100 µM (inactive) | > 100 µM (inactive) |  | > 100 µM (inactive) | > 100 µM (inactive) | > 100 µM (inactive) | > 100 µM (inactive) | > 100 µM (inactive) | > 100 µM (inactive) | > 100 µM (inactive)
9 | C/C(Cl)=N\OC(=O)Nc1ccc(C)cc1 | 18.8 µM (inactive) | 16.7 µM (inactive) | 15.4 | 2.22 µM (inactive) | 46.9 µM (inactive) | 22.9 µM (inactive) | 16.7 µM (inactive) | 17.5 µM (inactive) | 20.7 µM (inactive) | 18.1 µM (inactive) |  | 18.5 µM (inactive) | > 10 µM (inactive) | 16.6 µM (inactive) | 18.7 µM (inactive) | 15.7 µM (inactive) | 9.64 µM (inactive) | 18.7 µM (inactive) |  | 16.9 µM (inactive)
10 | N#C/C(=C1/c2cc([N+](=O)[O-])ccc2-c2c1cc([N+](=O)[O-])cc2[N+](=O)[O-])N1CCCCC1 | > 100 µM (inactive) | > 100 µM (inactive) | > 100 |  | 32.4 µM (inactive) | > 100 µM (inactive) | 49.5 µM (inactive) |  | 55.7 µM (inactive) |  | 46.6 µM (inactive) | > 100 µM (inactive) | 17 µM (inactive) | > 100 µM (inactive) |  | > 100 µM (inactive) | 1.34 µM (inactive) | > 100 µM (inactive) | 68.4 µM (inactive) | > 100 µM (inactive)
11 | O=C(c1ccccc1)c1cccc(C(=O)c2ccccc2)c1 | > 100 µM (inactive) | > 100 µM (inactive) |  |  | > 100 µM (inactive) | > 100 µM (inactive) | > 100 µM (inactive) | 33 µM (inactive) | 98.2 µM (inactive) | > 100 µM (inactive) | > 100 µM (inactive) |  | > 100 µM (inactive) | > 100 µM (inactive) | > 100 µM (inactive) | > 100 µM (inactive) | 97.9 µM (inactive) | > 100 µM (inactive) | > 100 µM (inactive) | 78.2 µM (inactive)
12 | CCOC(=O)c1c(-c2ccc(OC)cc2)c(C#N)c(=S)n(C2OC(COC(C)=O)C(OC(C)=O)C(OC(C)=O)C2OC(C)=O)c1C (stereo not given) | > 100 µM (inactive) | > 100 µM (inactive) | > 100 | 75.7 µM (inactive) | > 100 µM (inactive) | > 100 µM (inactive) | > 100 µM (inactive) | > 100 µM (inactive) | > 100 µM (inactive) | > 100 µM (inactive) | 70.8 µM (inactive) | > 100 µM (inactive) |  | > 100 µM (inactive) | > 100 µM (inactive) | > 100 µM (inactive) | > 100 µM (inactive) | > 100 µM (inactive) | 44.5 µM (inactive) | > 100 µM (inactive)
13 | Sc1ncnc2c1ncn2Cc1ccco1 | > 100 µM (inactive) | > 100 µM (inactive) | > 100 |  | > 100 µM (inactive) | > 100 µM (inactive) | > 100 µM (inactive) | > 100 µM (inactive) | > 100 µM (inactive) | > 100 µM (inactive) | > 100 µM (inactive) | > 100 µM (inactive) | > 100 µM (inactive) | > 100 µM (inactive) | > 100 µM (inactive) | > 100 µM (inactive) | > 100 µM (inactive) | > 100 µM (inactive) | > 100 µM (inactive) | > 100 µM (inactive)
14 | CCOP(C)(=O)C(Cc1c[nH]c2ccccc12)C(=O)O (stereo not given) | > 100 µM (inactive) | > 100 µM (inactive) | > 100 | > 100 µM (inactive) | > 100 µM (inactive) | > 100 µM (inactive) | > 100 µM (inactive) |  |  |  | > 100 µM (inactive) | > 100 µM (inactive) | > 100 µM (inactive) | > 100 µM (inactive) | > 100 µM (inactive) | > 100 µM (inactive) | > 100 µM (inactive) |  | > 100 µM (inactive) | > 100 µM (inactive)
15 | C[n+]1c2ccccc2c(NCC(=O)O)c2ccccc21 | > 100 µM (inactive) | > 100 µM (inactive) | > 100 | > 100 µM (inactive) | > 100 µM (inactive) | > 100 µM (inactive) | > 100 µM (inactive) |  | > 100 µM (inactive) | > 100 µM (inactive) | > 100 µM (inactive) | > 100 µM (inactive) | > 100 µM (inactive) | > 100 µM (inactive) | > 100 µM (inactive) | > 100 µM (inactive) | > 100 µM (inactive) | > 100 µM (inactive) | > 100 µM (inactive) | > 100 µM (inactive)
